SMILES strings stand for the structures.

As usually defined, the pest or weed control is the degree to which the test organism was suppressed or injured, in per cent. Low values mean a weak effect, high ones a strong effect.

What all share (type): in vivo
The subject of series [1] is Winter Wheat variety 'Hereward'. Nature of the series: Crop damage to winter wheat seed treated with safener cloquintocet mexyl, post-emergence spray. The settings on record: 250 g/ha, seed treated with cloquintocet mexyl 0.5 g/kg seed, evaluated after 13 days, 100=total damage, 0=no damage. On the procedure: Seeds of the Winter Wheat variety ‘Hereward’ were seed treated with a wettable powder formulation of the cereal herbicide safener, cloquintocet mexyl, at a rate of 0.5 grams per kilogram of dry seed prior to the initiation of glasshouse testing. One seed was sown per 1.5 inch plastic pot into a sandy loam soil at a depth of 1 cm, 8 days prior to application of the test compounds and was watered and grown under controlled conditions in a glasshouse (at 24/16° C., day/night; 14 hours light; 65% humidity). The plants were sprayed post-emergence with an aqueous spray solution derived from the formulation of the technical active ingredient in acetone/water (50:50) solution containing 0.5% Tween 20 (polyoxyethylene sorbitan monolaurate, CAS RN 9005-64-5). The test plants were then grown in a glasshouse under controlled conditions in a glasshouse (at 24/16° C., day/night; 14 hours light; 65% humidity) and watered twice daily. After 13 days for pre and post-emergence, the test was evaluated (100=total damage to plant; 0=no damage to plant).

For series [2], the system named is Alopecurus myosuroides (ALOMY). Briefly: Pre-emergence herbicidal activity, glasshouse pot test. The settings on record: rate not printed (columns shifted), evaluated after 13 days, 100=total damage to plant, 0=no damage. On the procedure:
(§1) Seeds of a variety of test species are sown in standard soil in pots. After cultivation for one day (pre-emergence) or after 8 days cultivation (post-emergence) under controlled conditions in a glasshouse (at 24/16° C., day/night; 14 hours light; 65% humidity), the plants are sprayed with an aqueous spray solution derived from the formulation of the technical active ingredient in acetone/water (50:50) solution containing 0.5% Tween 20 (polyoxyethylene sorbitan monolaurate, CAS RN 9005-64-5). The test plants are then grown in a glasshouse under controlled conditions in a glasshouse (at 24/16° C., day/night; 14 hours light; 65% humidity) and watered twice daily. After 13 days for pre and post-emergence, the test is evaluated (100=total damage to plant; 0=no damage to plant). Lolium perenne (LOLPE), Alopecurus myosuroides (ALOMY), Echinochloa crus-galli (ECHCG), Avena fatua (AVEFA) Pre-Emergence Activity

Series [3] deals with Echinochloa crus-galli (ECHCG). The description is as above. The settings on record: rate not printed (columns shifted), evaluated after 13 days, 100=total damage to plant, 0=no damage. On the procedure:
as §1

Series [4] relates to Avena fatua (AVEFA). The description is as above. The note with it: rate not printed (columns shifted), evaluated after 13 days, 100=total damage to plant, 0=no damage. On the procedure: as §1
Series [5] deals with Lolium perenne (LOLPE). The description is as above. The note with it: rate not printed (columns shifted), evaluated after 13 days, 100=total damage to plant, 0=no damage. On the procedure:
as §1

The test system of series [6] is Winter Wheat variety 'Hereward'. Nature of the series: Crop damage to winter wheat, post-emergence spray. The note with it: 250 g/ha, no safener, evaluated after 13 days, 100=total damage to plant, 0=no damage. How it is done: Seeds of the Winter Wheat variety ‘Hereward’ were sown in standard soil in pots. After 8 days cultivation under controlled conditions in a glasshouse (at 24/16° C., day/night; 14 hours light; 65% humidity), the plants were sprayed post-emergence with an aqueous spray solution derived from the formulation of the technical active ingredient in acetone/water (50:50) solution containing 0.5% Tween 20 (polyoxyethylene sorbitan monolaurate, CAS RN 9005-64-5). The test plants were then grown in a glasshouse under controlled conditions in a glasshouse (at 24/16° C., day/night; 14 hours light; 65% humidity) and watered twice daily. After 13 days for pre and post-emergence, the test was evaluated (100=total damage to plant; 0=no damage to plant).

Series [7] deals with Alopecurus myosuroides (ALOMY). Briefly: Post-emergence herbicidal activity, glasshouse pot test. The settings on record: 312 h, evaluated after 13 days, 100=total damage to plant, 0=no damage. On the procedure:
as §1, with “Post-Emergence” for “Pre-Emergence”

Series [8] concerns Echinochloa crus-galli (ECHCG). The series is described as above. The note with it: 312 h, evaluated after 13 days, 100=total damage to plant, 0=no damage. How it is done:
as §1, with “Post-Emergence” for “Pre-Emergence”

Series [9] relates to Avena fatua (AVEFA). Described as above. The settings on record: 312 h, evaluated after 13 days, 100=total damage to plant, 0=no damage. On the procedure:
as §1, with “Post-Emergence” for “Pre-Emergence”

Series [10] has as its system Lolium perenne (LOLPE). The description is as above. The note with it: 312 h, evaluated after 13 days, 100=total damage to plant, 0=no damage. How it is done: as §1, with “Post-Emergence” for “Pre-Emergence”

Consider `Cc1sc(-c2ccccc2)nc1C1C(=O)CC(CC2CCOCC2)C1=O` (stereo not drawn) [Compound A17], for which the “Winter Wheat (Hereward) + cloquintocet mexyl (damage to plant)” value in series [1] is recorded as 40. In addition, the “Pre-Emergence Activity ALOMY (damage to plant)” value (shortened to “Pre-Emergence Activity ALOMY”) in series [2] is 70. The “Pre-Emergence Activity ECHCG (damage to plant)” value (“Pre-Emergence Activity ECHCG” for short) in [3] came out at 100. Further, the “Pre-Emergence Activity AVEFA (damage to plant)” value (“Pre-Emergence Activity AVEFA” below) with Avena fatua (AVEFA) [4] was found to be 50. In addition, the “Pre-Emergence Activity LOLPE (damage to plant)” value (shortened to “Pre-Emergence Activity LOLPE”) with Lolium perenne (LOLPE) [5] is 100. Also, the “Winter Wheat (Hereward) (damage to plant)” value in series [6] is recorded as 60. Besides, the pest or weed control at 250 g/ha in series [7] was determined as 90%; in series [8], 100%; in the series with Avena fatua (AVEFA) [9] it was 90%; with Lolium perenne (LOLPE) [10], 100%.
For `Cc1sc(-c2ccc(Cl)cc2)nc1C1C(=O)CC(CC2CCOCC2)C1=O` (stereo not drawn) [Compound A18], in series [1], the “Winter Wheat (Hereward) + cloquintocet mexyl (damage to plant)” value is on record as 90. In addition, the “Pre-Emergence Activity ALOMY” value in series [2] is given as 80. Further, in series [3], the “Pre-Emergence Activity ECHCG” value is reported as 100. Further, in the series on Avena fatua (AVEFA) [4], the “Pre-Emergence Activity AVEFA” value is on record as 90. Moreover, the “Pre-Emergence Activity LOLPE” value in the series on Lolium perenne (LOLPE) [5] came out at 100. Moreover, in series [6], the “Winter Wheat (Hereward) (damage to plant)” value was found to be 80. The pest or weed control at 250 g/ha (in series [7]; in series [8]; in the series on Avena fatua (AVEFA) [9]; with Lolium perenne (LOLPE) [10]) was 100% each time.
For the compound `Cc1cc(-c2ccc(Cl)cc2)nn1C1C(=O)CC(Cc2ccc(F)cn2)C1=O` (stereo not drawn) [Compound A20], in [1], the “Winter Wheat (Hereward) + cloquintocet mexyl (damage to plant)” value came to 70. For the same compound, the “Pre-Emergence Activity ALOMY” value in series [2] is reported as 40. In addition, the “Pre-Emergence Activity ECHCG” value in series [3] amounted to 100. In the series on Avena fatua (AVEFA) [4], the “Pre-Emergence Activity AVEFA” value came out at 20. In addition, the “Pre-Emergence Activity LOLPE” value in the series on Lolium perenne (LOLPE) [5] turned out to be 70. In [6], the “Winter Wheat (Hereward) (damage to plant)” value amounted to 70. Moreover, the pest or weed control at 250 g/ha in series [7] was determined as 80%; in series [8] it was 100%; in the series on Avena fatua (AVEFA) [9], 90%; in the series with Lolium perenne (LOLPE) [10] it was 90%.
Turning to `Cc1cc(-c2ccc(Cl)cc2)nn1C1C(=O)C/C(=C\c2ccc(F)cn2)C1=O` (stereo not drawn) [Compound A21], in [1], the “Winter Wheat (Hereward) + cloquintocet mexyl (damage to plant)” value came out at 10. Also, in series [2], the “Pre-Emergence Activity ALOMY” value stood at 40. Besides, the “Pre-Emergence Activity ECHCG” value in [3] was 90. For the same compound, the “Pre-Emergence Activity AVEFA” value in the series with Avena fatua (AVEFA) [4] worked out at 10. Besides, the “Pre-Emergence Activity LOLPE” value in the series on Lolium perenne (LOLPE) [5] was 90. Also, the “Winter Wheat (Hereward) (damage to plant)” value in series [6] is 20. In addition, the pest or weed control at 250 g/ha in [7] was found to be 70%; in [8] it was 90%; in the series with Avena fatua (AVEFA) [9], 30%; with Lolium perenne (LOLPE) [10], 60%.
On to `Cc1cc(-c2ccc(Cl)cc2)nn1C1C(=O)C/C(=C/c2ccc(F)cn2)C1=O` (stereo not drawn) [Compound A22], for which the “Winter Wheat (Hereward) + cloquintocet mexyl (damage to plant)” value in series [1] is given as 10. For the same compound, in series [2], the “Pre-Emergence Activity ALOMY” value is recorded as 40. Besides, in [3], the “Pre-Emergence Activity ECHCG” value worked out at 70. In addition, in the series on Avena fatua (AVEFA) [4], the “Pre-Emergence Activity AVEFA” value came out at 20. Also, the “Pre-Emergence Activity LOLPE” value with Lolium perenne (LOLPE) [5] was found to be 60. Further, the “Winter Wheat (Hereward) (damage to plant)” value in [6] came out at 60. Further, the pest or weed control at 250 g/ha in series [7] came to 70%; in series [8] it was 90%; in the series with Avena fatua (AVEFA) [9], 60%; in the series on Lolium perenne (LOLPE) [10] it was 50%.
Turning to `Cc1cc(-c2ccc(Cl)cc2)nn1C1C(=O)C/C(=C\C2CCOCC2)C1=O` (stereo not drawn) [Compound A23], the “Winter Wheat (Hereward) + cloquintocet mexyl (damage to plant)” value in [1] came to 60. For the same compound, the “Pre-Emergence Activity ALOMY” value in [2] is given as 90. Further, the “Pre-Emergence Activity ECHCG” value in series [3] is 100. The “Pre-Emergence Activity AVEFA” value with Avena fatua (AVEFA) [4] was found to be 90. In addition, in the series with Lolium perenne (LOLPE) [5], the “Pre-Emergence Activity LOLPE” value was found to be 100. In addition, the “Winter Wheat (Hereward) (damage to plant)” value in series [6] worked out at 80. Moreover, the pest or weed control at 250 g/ha stood at 90% in [7], 100% in series [8], 100% in the series with Avena fatua (AVEFA) [9] and 100% in the series on Lolium perenne (LOLPE) [10].

Source of the values: patent US9051300B2, “Herbicides” (Syngenta Limited, priority 2009, dated 2015).
